As a reminder, the CC50 is the concentration at which the toxic effect on the cells reaches its halfway point. A higher CC50 goes with better tolerance by the cells. One may read the EC50 as the concentration needed to bring the measured effect to its halfway point. For orientation: solubility means the concentration that dissolves in the medium under given conditions.

Here are results for 17 compounds from PMC9658817, “Design, Synthesis, and Mechanistic Study of 2-Pyridone-Bearing Phenylalanine Derivatives as Novel HIV Capsid Modulators” (Molecules, 2022).

One series deals with MT-4 cells. Briefly: Cytotoxicity in mock-infected MT-4 cells (MTT assay). In kind it is cell-based. The conditions noted are these: uninfected (mock-infected) MT-4 cells, viability reduced by 50%. The method, then:
(§1) The antiviral activities and cytotoxicities of the target compounds were tested using MT-4 cells infected by HIV-1 IIIB or HIV-2 ROD. […] PF74 was utilized as the control drug in this assay.

For the next series, the system named is HIV-2 ROD. The series can be described thus: Anti-HIV-2 activity in MT-4 cells (MTT assay). In kind it is cell-based. Conditions: Human immunodeficiency virus 2, MT4, 120 h, read-out: EC50 HIV-2 ROD. The method, then: as §1
A general note: Tetrazolium dyes change colour on reduction, which living cells bring about.

The subject of a further series is HIV-1 IIIB. The series can be described thus: Anti-HIV-1 activity in MT-4 cells (MTT assay). The class given is cell-based. Conditions: Human immunodeficiency virus 1, IIIB, MT4, 120 h, read-out: EC50 HIV-1 IIIB. The method, then: as §1
Series [1] is described as follows: Water solubility assay in phosphate buffer (HPLC). In kind it is physicochemical. Conditions: for solubility: aqueous buffer, thermodynamic from solid, HPLC; for water solubility compared with PF74: in words, relative to PF74. The protocol: To test the changes in water solubility when two more amides or its mimics were introduced to the target compounds, which may lower the solubility of the target compounds, we performed water solubility assays (Table 2). […] Therefore, we cannot calculate its water solubility. It was illustrated that the solubility of compounds varied greatly under different pH. […] We weighed about 1mg of the compound, dissolved it with 1ml of methanol, and diluted it in gradient (twice each time) to obtain 10 concentrations. The peak area of the compound was tested by HPLC, and the peak area- concentration standard curve was drawn. In addition, about 1 mg, 0.6 mg and 0.3 mg of the compound were weighed and dissolved in 1 mL of pH 2, pH 7 and pH 7.4 phosphate buffer to obtain the saturated solution of the compound. HPLC was used to test the peak area under different pH, and the water solubility of the compound was obtained through the standard curve.

Series [2] can be described thus: Cytotoxicity in mock-infected MT-4 cells (MTT assay). The class given is cell-based. Conditions: human, mock-infected (uninfected) MT-4 cells, uninfected (mock-infected) MT-4 cells, viability reduced by 50%. The method, then:
as §1

The test system of the next series is HIV. More on the design: method as in PMID 32612233. The conditions noted are these: MT-4 cells; read-out: EC50 antiviral activity; cited from earlier work.
Where [3] appears, read: MT-4 cells, 50% protection against HIV-induced cytopathic effect, MTT, five days after infection.
Setting [4] is: phosphate buffer pH 2, saturated solution, read-out: Solubility pH 2.
The mark [5] stands for this setting: phosphate buffer pH 7, saturated solution, read-out: Solubility pH 7.
Setting [6] is: phosphate buffer pH 7.4, saturated solution, read-out: Solubility pH 7.4.

SMILES strings stand for the structures. In brackets after ≈: the same amount, converted by molar mass. Like-named read-outs stand apart in the source and are kept apart here. Where only a bound is given, the exact number is not on record here.

Regarding `COc1ccc(N(C)C(=O)[C@H](Cc2ccccc2)NC(=O)Cn2ccc(NC(=O)c3ccc(N)cc3)cc2=O)cc1` [TD-1m, (S)-4-amino-N-(1-(2-((1-((4-methoxyphenyl)(methyl)amino)-1-oxo-3-phenylpropan-2-yl)amino)-2-oxoethyl)-2-oxo-1,2-dihydropyridin-4-yl)benzamide], the CC50 in the series with MT-4 cells came to 189 ± 2.19 µM. In addition, the EC50 in the series on HIV-2 ROD (setting [3]) was 17.1 ± 2.49 µM; in the series with HIV-1 IIIB (setting [3]) it was more than 189 µM.
`COc1ccc(N(C)C(=O)[C@H](Cc2ccccc2)NC(=O)Cn2ccc(N)cc2=O)cc1` [TC-2, (S)-2-(2-(4-amino-2-oxopyridin-1(2H)-yl)acetamido)-N-(4-methoxyphenyl)-N-methyl-3-phenylpropanamide] came in with a CC50 in the series with MT-4 cells of 261 ± 33.1 µM. The EC50 in the series with HIV-2 ROD (setting [3]) turned out to be 19.7 ± 6.42 µM; in the series on HIV-1 IIIB (setting [3]), 29.1 ± 4.23 µM.
For `COc1ccc(N(C)C(=O)[C@H](Cc2cc(F)cc(F)c2)NC(=O)Cn2ccc(N)cc2=O)cc1` [FTC-2, (S)-2-(2-(4-amino-2-oxopyridin-1(2H)-yl)acetamido)-3-(3,5-difluorophenyl)-N-(4-methoxyphenyl)-N-methylpropanamide], the values for the solubility in series [1] (setting [4]), in series [1] (setting [5]) and in series [1] (setting [6]) were 367 ± 58.4 µg/mL (≈ 779 µM), 261 ± 130 µg/mL (≈ 555 µM) and 437 ± 51.9 µg/mL (≈ 928 µM), respectively. For the same compound, in series [1], the “water solubility compared with PF74” value was “improved by a factor of hundreds”. Moreover, in the series on MT-4 cells, the CC50 is more than 266 µM. Moreover, the EC50 is 15.6 ± 1.06 µM with HIV-2 ROD (setting [3]) and 5.36 ± 0.98 µM in the series with HIV-1 IIIB (setting [3]).
Regarding `Cc1[nH]c2ccccc2c1CC(=O)NC(Cc1ccccc1)C(=O)N(C)c1ccccc1` (stereo not drawn) [PF74, reference compound], the solubility in series [1] (setting [4]) was less than 1.12 µg/mL; in series [1] (setting [5]), 1.44 ± 0.1 µg/mL (≈ 3.38 µM); in series [1] (setting [6]), 1.91 ± 0.56 µg/mL (≈ 4.49 µM). This compound registered a CC50 at 5 days in series [2] of more than 294 µM. Also, the EC50 was determined as 5.76 ± 2.14 µM with HIV-2 ROD and 1.08 ± 0.24 µM in the series on HIV-1 IIIB.
`COc1ccc(N(C)C(=O)[C@H](Cc2ccccc2)NC(=O)Cn2ccc(NC(=O)c3ccc4ccccc4c3)cc2=O)cc1` [TD-1k, (S)-N-(1-(2-((1-((4-methoxyphenyl)(methyl)amino)-1-oxo-3-phenylpropan-2-yl)amino)-2-oxoethyl)-2-oxo-1,2-dihydropyridin-4-yl)-2-naphthamide]: the CC50 in the series with MT-4 cells amounted to 27.6 ± 3.18 µM. For the same compound, the EC50 with HIV-2 ROD (setting [3]) and with HIV-1 IIIB (setting [3]) was more than 27.6 µM throughout.
In the case of `COC(=O)c1ccc(C(=O)Nc2ccn(CC(=O)N[C@@H](Cc3ccccc3)C(=O)N(C)c3ccc(OC)cc3)c(=O)c2)cc1` [TD-1i, methyl (S)-4-((1-(2-((1-((4-methoxyphenyl)(methyl)amino)-1-oxo-3-phenylpropan-2-yl)amino)-2-oxoethyl)-2-oxo-1,2-dihydropyridin-4-yl)carbamoyl)benzoate], the CC50 in the series with MT-4 cells came to 96.2 ± 19.8 µM. Further, the 50% effective concentration (EC50) in the series with HIV-2 ROD (setting [3]) turned out to be 15.2 ± 0.55 µM; in the series with HIV-1 IIIB (setting [3]), 19.1 ± 5.08 µM.
As for `CC(C)(C#Cc1ccc(-c2ccc(Cl)c3c(NS(C)(=O)=O)nn(CC(F)(F)F)c23)c([C@H](Cc2cc(F)cc(F)c2)NC(=O)Cn2nc(C(F)(F)F)c3c2C(F)(F)[C@@H]2C[C@H]32)n1)S(C)(=O)=O` [GS-6207], in the series on HIV, the EC50 is 0.000105 µM.
In the series on MT-4 cells, `COc1ccc(N(C)C(=O)[C@H](Cc2ccccc2)NC(=O)Cn2ccc(NC(=O)c3ccc(F)cc3)cc2=O)cc1` [TD-1b, (S)-4-fluoro-N-(1-(2-((1-((4-methoxyphenyl)(methyl)amino)-1-oxo-3-phenylpropan-2-yl)amino)-2-oxoethyl)-2-oxo-1,2-dihydropyridin-4-yl)benzamide] displayed a CC50 of 34.8 ± 5.75 µM. Moreover, the EC50 is 16.2 ± 17.2 µM in the series with HIV-2 ROD (setting [3]) and more than 34.8 µM in the series with HIV-1 IIIB (setting [3]).
In the same order, the values of `COc1ccc(N(C)C(=O)[C@H](Cc2ccccc2)NC(=O)Cn2ccc(NC(=O)c3ccc([N+](=O)[O-])cc3)cc2=O)cc1` [TD-1l, (S)-N-(1-(2-((1-((4-methoxyphenyl)(methyl)amino)-1-oxo-3-phenylpropan-2-yl)amino)-2-oxoethyl)-2-oxo-1,2-dihydropyridin-4-yl)-4-nitrobenzamide] are 31.9 ± 1.73 µM, more than 31.9 µM and more than 31.9 µM.
The compound `COc1ccc(N(C)C(=O)[C@H](Cc2ccccc2)NC(=O)Cn2ccc(NC(=O)c3ccc(Br)cc3)cc2=O)cc1` [TD-1f, (S)-4-bromo-N-(1-(2-((1-((4-methoxyphenyl)(methyl)amino)-1-oxo-3-phenylpropan-2-yl)amino)-2-oxoethyl)-2-oxo-1,2-dihydropyridin-4-yl)benzamide] had a CC50 with MT-4 cells of 23.5 ± 2.79 µM. The half-maximal effective concentration (EC50) with HIV-2 ROD (setting [3]) and in the series with HIV-1 IIIB (setting [3]) was more than 23.5 µM each time.
As for `COc1ccc(N(C)C(=O)[C@H](Cc2ccccc2)NC(=O)Cn2ccc(NC(=O)c3ccccc3)cc2=O)cc1` [TD-1a, (S)-N-(1-(2-((1-((4-methoxyphenyl)(methyl)amino)-1-oxo-3-phenylpropan-2-yl)amino)-2-oxoethyl)-2-oxo-1,2-dihydropyridin-4-yl)benzamide], the solubility in series [1] (setting [4]) stood at 2.69 ± 0.52 µg/mL (≈ 4.99 µM); in series [1] (setting [5]), 5.07 ± 2.6 µg/mL (≈ 9.41 µM); in series [1] (setting [6]), 8.66 ± 0.41 µg/mL (≈ 16.1 µM). Also, in series [1], the “water solubility compared with PF74” value is given as “moderately increased”. For the same compound, the midpoint of cytotoxicity in the series with MT-4 cells, the CC50, lay at 86.5 ± 29.2 µM. The figures for the EC50 in the series with HIV-2 ROD (setting [3]) and with HIV-1 IIIB (setting [3]) were 4.86 ± 1.71 µM and 16.8 ± 0.91 µM, respectively.
Take `COc1ccc(N(C)C(=O)[C@H](Cc2ccccc2)NC(=O)Cn2ccc(NC(=O)c3cccc(F)c3)cc2=O)cc1` [TD-1c, (S)-3-fluoro-N-(1-(2-((1-((4-methoxyphenyl)(methyl)amino)-1-oxo-3-phenylpropan-2-yl)amino)-2-oxoethyl)-2-oxo-1,2-dihydropyridin-4-yl)benzamide]: it took 61.6 ± 8.44 µM to reach half-maximal cytotoxicity in the series with MT-4 cells (CC50). The half-maximal effective concentration (EC50) with HIV-2 ROD (setting [3]) turned out to be 6.59 ± 1.63 µM; in the series with HIV-1 IIIB (setting [3]), 18.9 ± 2.66 µM.
For the compound `COc1ccc(N(C)C(=O)[C@H](Cc2ccccc2)NC(=O)Cn2ccc(NC(=O)c3ccc(Cl)cc3)cc2=O)cc1` [TD-1e, (S)-4-chloro-N-(1-(2-((1-((4-methoxyphenyl)(methyl)amino)-1-oxo-3-phenylpropan-2-yl)amino)-2-oxoethyl)-2-oxo-1,2-dihydropyridin-4-yl)benzamide], in the series with MT-4 cells, the CC50 turned out to be 25.5 ± 2.9 µM. Moreover, the EC50 with HIV-2 ROD (setting [3]) and in the series on HIV-1 IIIB (setting [3]) was more than 25.5 µM in each case.
In the series with MT-4 cells, `COc1ccc(C(=O)Nc2ccn(CC(=O)N[C@@H](Cc3ccccc3)C(=O)N(C)c3ccc(OC)cc3)c(=O)c2)cc1` [TD-1h, (S)-4-methoxy-N-(1-(2-((1-((4-methoxyphenyl)(methyl)amino)-1-oxo-3-phenylpropan-2-yl)amino)-2-oxoethyl)-2-oxo-1,2-dihydropyridin-4-yl)benzamide] had a CC50 of 53.1 ± 5.12 µM. For the same compound, the EC50 in the series on HIV-2 ROD (setting [3]) came out at 10.7 ± 3.66 µM; with HIV-1 IIIB (setting [3]), 29.6 ± 4.34 µM.
In turn, `COc1ccc(N(C)C(=O)[C@H](Cc2ccccc2)NC(=O)Cn2ccc(NC(=O)c3ccc(C)cc3)cc2=O)cc1` [TD-1g, (S)-N-(1-(2-((1-((4-methoxyphenyl)(methyl)amino)-1-oxo-3-phenylpropan-2-yl)amino)-2-oxoethyl)-2-oxo-1,2-dihydropyridin-4-yl)-4-methylbenzamide] had a CC50 in the series with MT-4 cells of 58.3 ± 4.85 µM. Besides, the EC50 in the series with HIV-2 ROD (setting [3]) is 20.5 ± 8.49 µM; in the series with HIV-1 IIIB (setting [3]), 25.6 ± 7.51 µM.
In the same order, the values of `COc1ccc(N(C)C(=O)[C@H](Cc2ccccc2)NC(=O)Cn2ccc(NC(=O)c3ccccc3F)cc2=O)cc1` [TD-1d, (S)-2-fluoro-N-(1-(2-((1-((4-methoxyphenyl)(methyl)amino)-1-oxo-3-phenylpropan-2-yl)amino)-2-oxoethyl)-2-oxo-1,2-dihydropyridin-4-yl)benzamide] are 81.4 ± 22.7 µM, 7.92 ± 0.83 µM and 17.9 ± 2.68 µM.
Taken in the same sequence, the figures for `COc1ccc(N(C)C(=O)[C@H](Cc2ccccc2)NC(=O)Cn2ccc(NC(=O)c3ccc(C#N)cc3)cc2=O)cc1` [TD-1j, (S)-4-cyano-N-(1-(2-((1-((4-methoxyphenyl)(methyl)amino)-1-oxo-3-phenylpropan-2-yl)amino)-2-oxoethyl)-2-oxo-1,2-dihydropyridin-4-yl)benzamide] were 137 ± 22.5 µM, 17.8 ± 2.79 µM and 16.8 ± 0.78 µM.
